From patent US10472663B2, “Procedure for the rapid determination of bacterial susceptibility to antibiotics that inhibit protein synthesis” (ABM TECHNOLOGIES, LLC, priority 2015, dated 2019)

How the values were obtained:
Assay type in all cases: cell-based
Escherichia coli [1] = test: Micromax assay of ciprofloxacin-induced DNA fragmentation after a protein synthesis inhibitor (Example 1)
Protocol: As an exemplification of the principals previously described, two strains of Escherichia coli exponentially growing in Mueller-Hinton broth were assayed (FIGS. 1-6). The first strain of Escherichia coli was a TG1 strain susceptible to both the aminoglycoside tobramycin (an inhibitor of protein synthesis) and the quinolone ciprofloxacin (an agent which induces DNA fragmentation by trapping of topoisomerases in DNA) (FIGS. 1-3). The second strain was a clinical isolate resistant to tobramycin and susceptible to ciprofloxacin (FIGS. 4-6). Four treatments were applied to each strain to rapidly distinguish the susceptible and the resistant strain to tobramycin.
One portion of both bacterial strains was incubated with tobramycin at 4 μg/ml for 40 minutes (FIGS. 1 and 4), a dosage indicated by the CLSI as the breakpoint of susceptibility to tobramycin in the standard antibiogram based on microdilution. Another portion of both strains was incubated with ciprofloxacin at 1 μg/ml for 30 min (FIGS. 2 and 5). Still another portion of both strains was incubated with tobramycin at 4 μg/ml for 10 min followed by ciprofloxacin at 1 μg/ml for 30 min, without removing the tobramycin (FIGS. 3 and 6). A final portion was left with no antibiotic.
After each incubation cells were processed using the variant of the Micromax technology to visualize the nucleoids, i.e. bacterial chromosomal DNA, in all the cells of the population. Cells from each culture were immersed in an agarose microgel on a slide and incubated with a specific lysing solution to remove the cell wall in all the cells and release in the microgel the nucleoids contained inside the bacteria. These are dried, stained with a high sensitive fluorochrome for DNA like SYBR Gold and visualized under fluorescence microscopy. FIGS. 1-6 depicts representative images captured under each of the conditions described below.
The above described methodology was employed to rapidly determine the susceptibility of 12 strains of E. coli to tobramycin. One portion of each bacterial strain was incubated with tobramycin at the susceptibility breakpoint dosage, 4 μg/ml, for 40 min. A portion of each strain was incubated with ciprofloxacin at 1 μg/ml for 30 min. Still another portion of each strain was incubated with tobramycin at 4 μg/ml for 10 min followed by ciprofloxacin at 1 μg/ml for 30 min, without removing the tobramycin. A final portion of each strain was left with no antibiotic. E. coli strains were identified as susceptible or not based on the levels of DNA fragmentation in the portion of each strain incubated with ciprofloxacin and the portion incubated with tobramycin and ciprofloxacin.
The principals exemplified in Example 1 were confirmed with the aminoglycoside amikacin. Briefly, a susceptible and resistant strain of E. coli were exposed to similar conditions to those described in Example 1, except that amikacin was utilized as the protein synthesis inhibiting antibiotic. Specifically, each was strain subjected to four treatments. One portion received no antibiotics, and another portion received only a quinolone, such as ciprofloxacin or norfloxacin to induce DNA fragmentation. Still another portion received the protein synthesis inhibiting antibiotic aminoglycoside amikacin, followed by the quinolone. Another portion received only amikacin. A final portion received neither antibiotic.
The principals exemplified in Example 1 were further confirmed with the aminoglycoside gentamicin. Briefly, the rapid test was performed on 15 isolated E. coli strains according to the methodology described above, except that gentamicinin was utilized as the protein synthesis inhibiting antibiotic. Suppressed DNA fragmentation were used to characterize bacterial susceptibility and those characterizations were verified with the standard antibiogram for gentamicin by microdilution. […]

Pseudomonas aeruginosa [2] = test: Variant Micromax assay of cell enlargement by ceftazidime after tobramycin (Example 7); details: ceftazidime alone 0.5 μg/ml 60 minutes; both strains
Protocol: As an example, two strains of Pseudomonas aeruginosa exponentially growing in Mueller-Hinton broth were assayed. These strains were both susceptible to the β-lactam ceftazidime, which inhibits peptidoglycan synthesis. One strain was susceptible and the other resistant to the aminoglycoside tobramycin (an inhibitor of protein synthesis). For the purpose of rapidly distinguishing the susceptible and the resistant strain to tobramycin each strain was subjected to four treatments.
A portion of each strain was incubated with tobramycin at 4 μg/ml (the CLSI breakpoint of susceptibility) for 75 minutes. An assay of this portion is depicted at FIGS. 31 and 34. Another portion of each strain was incubated with ceftazidime at 0.5 μg/ml for 60 minutes. An assay of this portion is depicted at FIGS. 32 and 35. Still another portion of both strains was incubated with tobramycin at 4 μg/ml for 15 minutes followed by ceftazidime at 0.5 μg/ml for 60 minutes, without removing the tobramycin. Assays of these strains can be seen at FIGS. 33 and 36, respectively. A final portion of each strain was not treated with either antibiotic.
After incubation with the antibiotics, cells were processed using a variant Micromax technology to visualize the enlargement or not of the bacteria. Samples from each culture were immersed in an agarose microgel on a slide, dried, stained with a high sensitive fluorochrome for DNA like SYBR Gold and visualized under fluorescence microscopy to visualize cell shape and size.

Enterococcus faecalis = test: Variant Micromax assay of cell lysis by lysozyme after erythromycin (Example 6)
Protocol: As an example, two strains of Enterococcus faecalis exponentially growing in Mueller-Hinton broth were incubated under four different conditions and then assayed. […] Each strain was subjected to four treatments for the purpose of rapidly distinguishing the susceptible and the resistant strain to erythromycin.
The dose was that indicated by the CLSI as the breakpoint of susceptibility to erythromycin in the standard antibiogram based on microdilution. Another portion of both strains was incubated with lysozyme 1 mg/ml, 10 min at 37° C. […]
(§1) After incubation with lysozyme, the cells were processed using a variant of the Micromax technology to visualize the nucleoids, i.e. spreading of the bacterial chromosomal DNA, in all the cells of the population. Samples from the cultures were immersed in an agarose microgel on a slide and incubated with a specific lysing solution to remove the cell wall in all the cells and release in the microgel the nucleoids contained inside the bacteria. These are dried, stained with a highly sensitive fluorochrome for DNA like SYBR Gold and visualized under fluorescence microscopy.

Pseudomonas aeruginosa [3] = test: Variant Micromax assay of cell wall damage by meropenem after tobramycin (Example 5); details: meropenem alone 0.2 μg/ml 60 min; both strains
Source text: As an exemplification of this principal, FIGS. 19-24 illustrates assays of two strains of Pseudomonas aeruginosa exponentially growing in Mueller-Hinton broth. Both strains were both susceptible to the β-lactam meropenem, which inhibits peptidoglycan synthesis. One strain was susceptible (FIGS. 19-21) and the other resistant (FIGS. 22-24) to the aminoglycoside tobramycin (inhibitor of protein synthesis).
For the purpose of rapidly distinguishing susceptible and resistant (i.e. non-susceptible) strains to tobramycin each strain was subjected to four treatments. A portion of each strain was incubated with tobramycin at 4 μg/ml for 75 min (FIGS. 19 and 22). The dose utilized, was indicated by the CLSI as the breakpoint of susceptibility to tobramycin. FIGS. 20 and 23 illustrate an assay from another portion of each strain, which was incubated with Meropenem at 0.2 μg/ml for 60 min. FIGS. 21 and 24, illustrate assays from still another portion of both strains which was incubated with tobramycin at 4 μg/ml for 15 min followed by meropenem at 0.2 μg/ml for 60 min, without removing the tobramycin. Still another portion of both strains was maintained without the addition of either antibiotic.
After incubation cells were processed using a variant Micromax technology to visualize the affectation or not of the cell wall based on the release or not of the nucleoids contained inside the bacteria. In the same manner described previously, samples from cells from the culture are immersed in an agarose microgel on a slide and incubated with a specific lysing solution that removes the cell wall only in those bacteria whose peptidoglycan was affected, thus releasing in the microgel the nucleoids contained inside. […] The processed bacteria in microgel are dried, stained with a high sensitive fluorochrome for DNA like SYBR Gold and visualized under fluorescence microscopy.

Escherichia coli [4] = test: Variant Micromax assay of cell enlargement by low-dose mitomycin C after tobramycin (Example 8); details: mitomycin C alone 0.5 μg/ml 60 minutes; both strains
Protocol: As an example, two strains of Escherichia coli exponentially growing in Mueller-Hinton broth were incubated under four different conditions and then assayed. One strain was susceptible and the other resistant to the aminoglycoside tobramycin (an inhibitor of protein synthesis). For the purpose of rapidly distinguishing susceptible and non-susceptible strains to tobramycin each strain was incubated under four conditions.
A portion of each strain was incubated with tobramycin at 4 μg/ml for 90 minutes. As described previously, this dose is indicated by the CLSI as the breakpoint of susceptibility to tobramycin in the standard antibiogram based on microdilution. Another portion of both strains was incubated in Mitomycin C at 0.5 μg/ml for 60 minutes. Still another portion of each strain was incubated with tobramycin at 4 μg/ml for 30 minutes followed by mitomycin C at 0.5 μg/ml for 60 minutes, without removing the tobramycin. A final portion of both strains was not incubated with either antibiotic.
After the incubation, cells were processed using a variant Micromax technology to visualize any enlargement or not of the bacteria. Samples from cells from the culture were immersed in an agarose microgel on a slide, dried, stained with a highly sensitive fluorochrome for DNA like SYBR Gold and visualized under fluorescence microscopy to visualize cell shape and size. Images were similar those correspondent to the previous figure.

Escherichia coli [5] = test: Micromax assay of mitomycin C-induced DNA fragmentation after tobramycin (Example 2); details: mitomycin C alone 50 μg/ml 60 min; both strains
Protocol: FIGS. 7-9 depict a TG1 strain susceptible to the aminoglycoside tobramycin, an inhibitor of protein synthesis, and mitomycin C, an agent which induces DNA damage. The other strain illustrated in FIGS. 10-12 was a clinical isolate resistant to tobramycin.
One portion of both bacterial strains was incubated with tobramycin at 4 μg/ml for 90 min (FIGS. 7 and 10), a dosage indicated by the CLSI as the breakpoint of susceptibility to tobramycin in the standard antibiogram based on microdilution. Another portion of both strains was incubated with mitomycin C at 50 μg/ml for 60 min (FIGS. 8 and 11). Still another portion of both strains was incubated with tobramycin at 4 μg/ml for 30 min followed by mitomycin C at 50 μg/ml for 60 min, without removing the tobramycin (FIGS. 9 and 12). A final portion was left with no antibiotic.
as §1, with “incubation,” for “incubation with lysozyme, the”, “visualize” for “visualize the”, “i.e.” for “i.e. spreading of the”, “from cells from” for “from”, “culture are” for “cultures were”, “microscopy, Nucleoids from E. coli obtained using the Micromax assay are represented in FIGS. 7-12, FIGS. 7-9 correspond to a strain susceptible to tobramycin (TG1) and FIGS. 10-12 to a strain resistant to tobramycin.” for “microscopy.”

Staphylococcus aureus = test: Micromax assay of DNA fragmentation by DNase released with lysostaphin after azithromycin (Example 3); details: lysostaphin alone 10 μg/ml 1 min; both strains
Protocol: In an exemplification of this principal, two strains of S. aureus growing in Mueller-Hinton agar with 5% sheep blood were assayed. One strain was susceptible to the macrolide azithromycin (an inhibitor of protein synthesis) (FIGS. 13-15) and the other strain was a clinical isolate resistant to azithromycin (FIGS. 16-18). The purpose was to rapidly distinguish susceptible and non-susceptible strains to azithromycin. Cultures were processed direct from standard growing agar plates 18-24 h and it was not necessary the cells being exponentially growing previously to the assay.
Each of these strain was subjected to four treatments. One portion of both strains was incubated with azithromycin at 2 μg/ml for 120 min; 2 μg/ml being indicated by the CLSI as the breakpoint of susceptibility to azithromycin. The cells were then lysed to release nucleoids and images of FIGS. 13 and 16 were generated. Another portion of each strain was incubated with lysostaphin at 10 μg/ml for 1 min. FIGS. 14 and 17 depict the nucleoids released in each strain for this treatment. Still another portion was incubated with Azithromycin at 2 μg/ml for 120 min followed by lysostaphin at 10 μg/ml for 1 min, without removing the azithromycin. The assays for these treatments can be seen at FIGS. 15 and 18. A final portion was left without either antibiotic.
After the incubation, the cells were processed using the variant of a Micromax technology to lyse cells with affected cell walls. As indicated previously, samples from cells from the culture are immersed in an agarose microgel on a slide and incubated with a specific lysing solution to remove the cell wall in those cells affected by lysostaphin and release in the microgel the nucleoids contained inside the bacteria. These are dried, stained with a highly sensitive fluorochrome for DNA like SYBR Gold and visualized under fluorescence microscopy.

[6] = rapid test, confirmed by microdilution antibiogram, 12 strains for tobramycin, 15 for gentamicin

NCC[C@H](O)C(=O)N[C@@H]1C[C@H](N)[C@@H](O[C@H]2O[C@H](CN)[C@@H](O)[C@H](O)[C@H]2O)[C@H](O)[C@H]1O[C@H]1O[C@H](CO)[C@@H](O)[C@H](N)[C@H]1O [amikacin]
outcome of rapid susceptibility test with another protein synthesis inhibitor (Escherichia coli [1]; inhibitor followed by a quinolone, susceptible and resistant E. coli): successfully determined

CC(C)(O/N=C(\C(=O)N[C@@H]1C(=O)N2C(C(=O)[O-])=C(C[n+]3ccccc3)CS[C@H]12)c1csc(N)n1)C(=O)O [ceftazidime]
cell enlargement (Pseudomonas aeruginosa [2]): significant cell enlargement

O=C(O)c1cn(C2CC2)c2cc(N3CCNCC3)c(F)cc2c1=O [ciprofloxacin]
inhibitory response on lysis by lysozyme (Enterococcus faecalis; incubation with quinolones instead of a protein synthesis inhibitor): has not been obtained | DNA fragmentation of nucleoids (Escherichia coli [1]; ciprofloxacin alone 1 μg/ml 30 min, both strains): nucleoids with extensive fragmented DNA

C[C@@H](O)[C@H]1C(=O)N2C(C(=O)O)=C(S[C@@H]3CN[C@H](C(=O)N(C)C)C3)[C@H](C)[C@H]12 [meropenem]
release of nucleoids (cell wall damage) (Pseudomonas aeruginosa [3]): releasing of nucleoids due to affectation of the cell wall

CO[C@@]12[C@H](COC(N)=O)C3=C(C(=O)C(C)=C(N)C3=O)N1C[C@@H]1N[C@@H]12 [mitomycin C]
cell enlargement (Escherichia coli [4]): significant cell enlargement | DNA fragmentation of nucleoids (Escherichia coli [5]): nucleoids with fragmented DNA in both strains

gentamicin
E. coli strains identified as non-susceptible (resistant) (Escherichia coli [1]; [6]): 5 | E. coli strains identified as susceptible (Escherichia coli [1]; [6]): 10

lysostaphin
DNA fragmentation of released nucleoids (Staphylococcus aureus): release of nucleoids with a large extent of DNA fragmentation

lysozyme
partially lysed cells with spreading nucleoid fibers (Enterococcus faecalis; lysozyme 1 mg/ml 10 min at 37° C. and lysing solution, no erythromycin, erythromycin-resistant strain): 97.36% | lysed cells releasing nucleoid fibers (Enterococcus faecalis; lysozyme 1 mg/ml 10 min at 37° C. and lysing solution, no erythromycin, erythromycin-susceptible strain): 92.13%
